This is an account of results in patent publication US3968129A, “Azidophenol amine compounds and therapeutic compositions” (Boehringer Mannheim G.m.b.H., priority 1974, dated 1976).

One data set in a line: in vivo. The settings on record: iv; for LD50: mouse, i.v. into tail vein within 5 seconds, dosage at which 50% of the mice die, read-out: Acute Toxicity LD50 Mouse; for therapeutic index (LD50/DE250): ratio of LD50 (mouse i.v.) to DE250 (wake rabbit i.v.). How it is done: (§1) The following tests were carried out to determine the cardiac β-receptor blocking activity and the acute toxicity of certain compounds representative of the invention, as well as of a conventional comparison compound.
In another series of tests, the acute toxicity in mice of the test compounds by intravenous administration was determined as a measure of the tolerance (calculated as LD50 = dosage at which 50% of the mice die). The substances were injected, within a time period of 5 seconds, in dissolved form into the tail vein of 5 male and 5 female mice each, in increasing dosages. From the results (percentage of dead animals) at the various dosages, the mean lethal dosage was ascertained graphically or by way of programmed test analysis.
The results of both series of tests are set forth in the table below which contains, in addition, a calculated value expressing the ratio of LD50 : DE250 for each test compound.

A further data set deals with cardiac β-receptor. Description: Cardiac β-receptor blocking activity: inhibition of isoprenalin-induced heart frequency increase (tachycardia) in wake rabbits. It is filed as in vivo. The settings on record: wake rabbit; for Blocking of Isoprenalin Tachycardia in wake rabbits: Heartbeat Frequency x±sx: isoprenalin 1 μg/kg i.v. 30 min after infusion; for DE250: interpolated dosage which limits the frequency increase to 250 beats/min. Here is the method: as §1
The cardiac β-receptor blocking activity of the test compounds was evaluated by determination of the inhibition of isoprenalin-induced heart frequency increase in wake rabbits. This type of inhibition is a typical property of β-receptor blocking bio catalysts.
The tests were carried out on rabbits weighing between 2 to 3.5 kg settled in wooden cages with EKG-electrodes inserted into the hind-quarters s.c. The heart frequency was read via an integrator (15 seconds) as a digital value. The substances to be tested were infused through a small tube to the ear vein of the rabbits over a period of 15 minutes 30 minutes after completion of the infusion, isoprenalin (1 μg/kg) was intravenously injected. The results were set forth in terms of the reduction of the heartbeat increase induced by isoprenalin and a value (DE250) calculated as the dosage required to limit such increase to 250 heart beats/min.

With `CC(C)(C)NCC(O)COc1cccc(N=[N+]=[N-])c1` (stereo not shown) [Compound 3, 3-(2-Hydroxy-3-tert.-butylaminopropoxy)-azidobenzene], the LD50 in “in vivo” was 50 mg/kg. In the data set “in vivo”, the therapeutic index (LD50/DE250) stood at 60. The “Blocking of Isoprenalin Tachycardia in wake rabbits: Heartbeat Frequency x±sx” value (“Blocking of Isoprenalin Tachycardia” below) in the data set on cardiac β-receptor (dosage 0.1 mg/kg i.v.) came to 317±10 Beats/minute; with cardiac β-receptor (dosage 0.5 mg/kg i.v.), 256±10 Beats/minute; in the data set with cardiac β-receptor (dosage 2.0 mg/kg i.v.), 222± 6 Beats/minute; with cardiac β-receptor (dosage 5.0 mg/kg i.v.) it was 235±10 Beats/minute; in the data set on cardiac β-receptor (dosage printed "10" mg/kg i.v. (Compound 3 line)) it was 244± 8 Beats/minute. This compound returned a DE250 in the data set with cardiac β-receptor of 0.8 mg/kg i.v.

As to `CC(C)(C)NCC(O)COc1ccccc1N=[N+]=[N-]` (stereo not shown) [Compound 4, 2-(2-Hydroxy-3-tert.-butylaminopropoxy)-azidobenzene], the LD50 in the data set “in vivo” worked out at 29 mg/kg. In addition, the therapeutic index (LD50/DE250) in the data set “in vivo” was found to be 58. The “Blocking of Isoprenalin Tachycardia” value in the data set with cardiac β-receptor (dosage 0.1 mg/kg i.v.) is on record as 282± 5 Beats/minute; with cardiac β-receptor (dosage 0.5 mg/kg i.v.), 237± 7 Beats/minute; with cardiac β-receptor (dosage 1.0 mg/kg i.v.), 246± 6 Beats/minute; in the data set on cardiac β-receptor (dosage 5.0 mg/kg i.v.), 245±14 Beats/minute. Further, in the data set with cardiac β-receptor, the DE250 was 0.5 mg/kg i.v.

With `CC(C)NCC(O)COc1cccc(N=[N+]=[N-])c1` (stereo not shown) [Compound 2, 3-(2-Hydroxy-3-isopropylaminopropoxy)-azidobenzene], the LD50 in the data set “in vivo” was found to be 50 mg/kg. In addition, the therapeutic index (LD50/DE250) in “in vivo” was 40. In addition, the “Blocking of Isoprenalin Tachycardia” value is given as 282± 9 Beats/minute in the data set on cardiac β-receptor (dosage 0.5 mg/kg i.v.), 258±10 Beats/minute with cardiac β-receptor (dosage 1.0 mg/kg i.v.) and 205± 9 Beats/minute in the data set with cardiac β-receptor (dosage 5.0 mg/kg i.v.). In addition, in the data set with cardiac β-receptor, the DE250 is on record as 1.3 mg/kg i.v.

Regarding `CC(C)NCC(O)COc1ccccc1N=[N+]=[N-]` (stereo not shown) [Compound 1, 2-(2-Hydroxy-3-isopropylaminopropoxy)-azidobenzene], the LD50 in “in vivo” came to 25 mg/kg. The therapeutic index (LD50/DE250) in “in vivo” was determined as 80. Further, the “Blocking of Isoprenalin Tachycardia” value is reported as 288± 8 Beats/minute in the data set with cardiac β-receptor (dosage 0.01 mg/kg i.v.); 252±10 Beats/minute in the data set on cardiac β-receptor (dosage 0.1 mg/kg i.v.); 250± 5 Beats/minute in the data set on cardiac β-receptor (dosage 0.5 mg/kg i.v.); 236±11 Beats/minute in the data set on cardiac β-receptor (dosage 1.0 mg/kg i.v.); 223± 6 Beats/minute in the data set with cardiac β-receptor (dosage 5.0 mg/kg i.v.). The compound further returned a DE250 in the data set on cardiac β-receptor of 0.3 mg/kg i.v.

For the compound `CC(=O)Nc1ccc(OCC(O)CNC(C)C)cc1` (stereo not shown) [Comparison Compound A, 4-[2-hydroxy-3-isopropylaminopropoxy]acetanilide, reference compound], the LD50 in “in vivo” is 69 mg/kg. The “Blocking of Isoprenalin Tachycardia” value with cardiac β-receptor (dosage 0.5 mg/kg i.v.) came to 307± 7 Beats/minute; with cardiac β-receptor (dosage 1.0 mg/kg i.v.), 264± 9 Beats/minute; in the data set on cardiac β-receptor (dosage 2.0 mg/kg i.v.), 250± 4 Beats/minute; with cardiac β-receptor (dosage 5.0 mg/kg i.v.) it was 246± 7 Beats/minute; in the data set on cardiac β-receptor (dosage 10.0 mg/kg i.v.), 217± 4 Beats/minute; in the data set with cardiac β-receptor (dosage 20.0 mg/kg i.v.) it was 225± 6 Beats/minute. The compound further showed a DE250 with cardiac β-receptor of 2.5 mg/kg i.v.
